Test results from publication PMC3544269 (2012).

How the values were obtained:
[1] = system: #13_83 (group 3 representative) (DNA, aptamer) ATACCAGCTTATTCAATTGGGGAGATCTTGAGGCTCGATCGATAGTAGCTGTGACAGTCTACGTTTTATGGTATGCGGGTAGATAGTAAGTGCAATCT; assay: fluorescent aptamer release from capture-oligo magnetic beads; settings: 100 mM NaCl, 5 mM KCl, 2 mM MgCl2, 1 mM CaCl2; 20 mM Tris-HCl pH 7.6, 21 °C; capture oligo i-ODN2Sp; 1 mM compound; threshold 1 pmol eluted
[2] = system: #3_18 (group 7) (DNA, aptamer) ATACCAGCTTATTCAATTAGCATGGTGCTGAGGCTTGATCTGGAGGTCGTGAACGAAAATTGGTCGTTTAGTTGGCTCGTAGATAGTAAGTGCAATCT; assay: as above; settings: 100 mM NaCl, 5 mM KCl, 2 mM MgCl2, 1 mM CaCl2; 20 mM Tris-HCl pH 7.6, 21 °C; capture oligo i-ODN2Sp; 1 mM compound; threshold 1 pmol eluted
[3] = system: #3_7 (group 1) (DNA, aptamer) ATACCAGCTTATTCAATTGGTGGTAGGATGGGCTCGATCGAGGTCTTCAGTCGGCTCGGTTTAGTTTATGTTCTCCTGTAGATAGTAAGTGCAATCT; assay: as above; settings: 100 mM NaCl, 5 mM KCl, 2 mM MgCl2, 1 mM CaCl2; 20 mM Tris-HCl pH 7.6, 21 °C; capture oligo i-ODN2Sp; 1 mM compound; threshold 1 pmol eluted
[4] = system: #3_7 (group 1) (DNA, aptamer) ATACCAGCTTATTCAATTGGTGGTAGGATGGGCTCGATCGAGGTCTTCAGTCGGCTCGGTTTAGTTTATGTTCTCCTGTAGATAGTAAGTGCAATCT; assay: fluorescent aptamer release from capture-oligo magnetic beads, one-site fit; settings: 100 mM NaCl, 5 mM KCl, 2 mM MgCl2, 1 mM CaCl2; 20 mM Tris-HCl pH 7.6, 21 °C; capture oligo i-ODN2Sp displaced; apparent; kanamycin A 0-1.5 mM

SMILES	binding [1]	binding [2]	binding [3]	KD [4]
CC(C)NCC(O)c1ccc(NS(C)(=O)=O)cc1 (stereo not drawn)	no	no	no	
Cc1cc(NS(=O)(=O)c2ccc(N)cc2)no1	no	no	no	
NC[C@H]1O[C@H](O[C@H]2[C@H](O)[C@@H](O[C@H]3O[C@H](CO)[C@@H](O)[C@H](N)[C@H]3O)[C@H](N)C[C@@H]2N)[C@H](O)[C@@H](O)[C@@H]1O	no	yes		24 µM
NC(=O)NS(=O)(=O)c1ccc(N)cc1	no	no	no	
